Laboratory results as given in patent US12692289B2, “Tumor-specific peptide antigens for ovarian cancer and uses thereof” (UNIVERSITE DE MONTREAL, priority 2019, dated 2026).
Peptide text beside a SMILES is read from it.

Tested on: TCGA-OV cohort
Test: TCGA-OV cohort analysis: survival and immune cell scores by aeTSA RNA expression and HLA allotype
Parameters: species or system human
Conditions: immune cell scores from RNA-Seq, ANOVA, p<0.05
Excerpt: Clinical and genomic data from TCGA. Processed and normalized level 3 data with hg38 for HM27 methylation, DNA copy number variation, RNA-Seq gene expression as well as the clinical data were downloaded from the TCGA open-access database using the R package ‘TCGAbiolinks’ (31). Arm-level DNA copy number alterations were downloaded from Broad Institute TCGA Genome Data Analysis Center (doi:10.7908/C1P84B9Q).
Immune cell scores. Immune cell scores representing immune cell populations were estimated based on RNA-Seq data. For each tumor, scores were estimated as the average of log-transformed FPKM values of their marker genes as described by Danaher et al. (32).
Statistical analyses and data visualization. Analyses and figures were performed using the R v3.5.1 or Python v2.7.6. The ‘gplots’ package in R was used to generate heatmaps of TSA coding region expression in tumors. Correlation tests were done using R function ‘cor.test’ with the Spearman's method unless otherwise indicated. Tests involving comparisons of distributions were performed with ANOVA test, and pairwise comparisons between groups were performed by Wilcoxon rank sum test. Log-rank P values for survival analysis were calculated with the ‘survival’ package.

CSCC[C@H](NC(=O)[C@H](CCC(N)=O)NC(=O)[C@H](Cc1c[nH]cn1)NC(=O)[C@@H](NC(=O)[C@@H](N)CCCNC(=N)N)[C@@H](C)O)C(=O)N[C@@H](CC(N)=O)C(=O)N[C@H](C(=O)N[C@@H](Cc1ccccc1)C(=O)N[C@@H](CCC(N)=O)C(=O)N[C@@H](CCCNC(=N)N)C(=O)O)[C@@H](C)O (H-RTHQMNTFQR-OH; N-terminus and C-terminus assumed)
correlation of aeTSA expression and relevant HLA allotype with tumor infiltration by T cells and cytotoxic T cells: positive correlation
